Measurements reported in publication PMC9002265, “A New Series of Strigolactone Analogs Derived From Cinnamic Acids as Germination Inducers for Root Parasitic Plants” (Frontiers in Plant Science, 2022).
Like-named read-outs stand apart in the source and are kept apart here.

Assays:
[1] = target: T1, ShHTL7 (Striga hermonthica, UniProt A0A0M3PNA2); experiment: YLG assay (inhibition of YLG hydrolysis) with recombinant ShHTL7; type: biochemical
T1 sequence (A0A0M3PNA2 1-271): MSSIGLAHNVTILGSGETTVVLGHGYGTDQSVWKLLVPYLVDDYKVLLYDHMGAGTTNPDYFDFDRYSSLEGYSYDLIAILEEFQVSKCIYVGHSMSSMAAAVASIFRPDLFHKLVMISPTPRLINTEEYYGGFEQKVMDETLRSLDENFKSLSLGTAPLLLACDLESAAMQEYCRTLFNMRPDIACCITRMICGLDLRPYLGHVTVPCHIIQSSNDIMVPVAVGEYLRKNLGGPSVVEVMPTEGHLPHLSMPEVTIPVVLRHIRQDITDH
Description: (§1) The ORF fragment of ShHTL6 and ShHTL7 was synthesized using IDT gBlock service. The PCR amplified ShHTL6 and ShHTL7 fragment was digested with Nco I and EcoR I, and the digested product was introduced into a modified pET28 vector with an N-terminal His8 tag. Escherichia coli BL21(DE3) was used for protein expression. The overnight culture (12 ml) was added to a fresh LB medium (1.2 L) containing kanamycin (50 mg/L) at 37°C. After OD600 reached 0.8, 0.1 mM IPTG was added and the cell was further incubated at 16°C for 21 h. The culture medium was centrifuged at 3700 g and the pellet was stored at −20°C until use. The pellet was resuspended and sonicated in a lysis buffer (50 mM Tris buffer (pH 8.0) containing 500 mM NaCl, 10 mM 2-mercaptoethanol, and 10% glycerol). The supernatant was purified by Ni Sepharose TM 6 Fast Flow (500 μl, Cytiva). After washing with the washing buffer (50 mM Tris buffer (pH 8.0) containing 500 mM NaCl and 20 mM imidazole), The bound protein was eluted with elution buffer (50 mM Tris buffer (pH 8.0) containing 500 mM NaCl and 200 mM imidazole). The eluate was concentrated using VIVASPIN Turbo 15 (Sartorius), and the concentration was adjusted to 5 mg/ml. The purified protein was aliquoted to the appropriate volume, immediately frozen in liquid nitrogen, and stored at −80°C until use.
(§2) After YLG was incubated with recombinant ShHTL6 or ShHTL7 for 1 h, the fluorescence was measured by spectraMax i5 (Molecular Devices) at excitation by 480 nm and detection by 520 nm. IC50 values were calculated using the online tool Quest GraphTM IC50 Calculator (AAT Bioquest, Inc., United States; https://www.aatbio.com/tools/ ic50-calculator).

[2] = target: T2, ShHTL6 (Striga hermonthica, UniProt A0A0M4AUV4); experiment: YLG assay (inhibition of YLG hydrolysis) with recombinant ShHTL6; type: biochemical
T2 sequence (A0A0M4AUV4 1-271): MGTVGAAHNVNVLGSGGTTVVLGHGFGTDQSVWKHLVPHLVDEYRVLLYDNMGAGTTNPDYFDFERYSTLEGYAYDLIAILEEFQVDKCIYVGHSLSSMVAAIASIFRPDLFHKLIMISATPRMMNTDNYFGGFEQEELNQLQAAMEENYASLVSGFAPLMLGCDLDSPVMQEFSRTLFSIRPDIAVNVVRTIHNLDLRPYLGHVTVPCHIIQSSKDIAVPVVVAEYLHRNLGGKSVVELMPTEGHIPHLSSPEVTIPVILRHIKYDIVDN
Description: as §1, §2

[3] = target: T1, ShHTL7; experiment: Hydrolysis assay with recombinant ShHTL7; type: biochemical; details: 10 μM substrate, 30°C, 60 min
Description: as §1
(§3) Hydrolysis assays were carried out at 30°C for 60 min in 100 μl of a reaction buffer containing 0.13 pmol recombinant ShHTL7 or AtD14, 10 μM of substrate in 50 mM Phosphate-Na buffer (pH 7.0) containing 2% acetone. The enzyme reaction was stopped by addition of 100 μl of acetonitrile containing 1-naphtaleneacetic acid (NAA; 0.5 ng/μl) as an internal standard. After centrifuged at 13,000 rpm for 5 min, each sample was subjected to LC–MS/MS analysis equipped with reverse-phase column (CORTECS UPLC Phenyl 1.6 μm, ϕ2.1 × 75 mm; Waters). The concentration of remaining substrate and reaction product was calculated by using NAA as an internal standard. Detailed information about the analytical condition is described in Supplementary Table 1.

[4] = tested on: Orobanche minor seeds; experiment: Germination assay, Orobanche minor seeds; type: in vivo; details: O. minor seeds; result in words
Description: Orobanche minor seeds were washed with 70% EtOH, and then sonicated for 4 min in 1% sodium hypochlorite solution containing 0.2% Tween-20. The seeds were then washed 10 times with sterile water and suspended in 0.1% agar solution. The seeds were loaded onto 5-mm glass fiber filter disks (20–70 seeds/disk) and were conditioned at 23°C for 15 days. Each disk was transferred into a 96-well plate. A 30 μl aliquot of test chemical solution was added to the well. For the germination assay, the chemical solutions were prepared by 1,000 times dilution from each acetone stock solution with water (final acetone concentration was 0.1%). GR24 solution (0.1% acetone) and sterile water (0.1% acetone) was used as positive and negative control, respectively. The 96 well plates were incubated for 5 days at 23°C and the number of total seeds and germinated seeds was counted.

[5] = target: T3, AtD14 (Arabidopsis thaliana, UniProt Q9SQR3); experiment: Hydrolysis assay with recombinant AtD14; type: biochemical; details: 10 μM substrate, 30°C, 60 min
T3 construct: The cDNA of AtD14 was introduced into pMALHis vector; MBP; His6; made in house; host or cells: E. coli BL21 (DE3)
T3 sequence (Q9SQR3 1-267): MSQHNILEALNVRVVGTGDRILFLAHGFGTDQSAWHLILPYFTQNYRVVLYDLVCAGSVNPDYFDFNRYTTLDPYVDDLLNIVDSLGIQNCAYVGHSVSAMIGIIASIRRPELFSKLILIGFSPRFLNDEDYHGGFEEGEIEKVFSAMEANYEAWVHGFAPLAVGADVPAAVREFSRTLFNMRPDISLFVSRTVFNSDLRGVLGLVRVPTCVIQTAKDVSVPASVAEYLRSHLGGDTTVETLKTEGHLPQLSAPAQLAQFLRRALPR
Description: The cDNA of AtD14 was introduced into pMALHis vector that has both MBP-tag and His6-tag. The vector was transformed in to E. coli BL21 (DE3) and the cell was precultured in LB medium containing 50 μg/ml ampicillin. Overnight cultures (10 ml) were added to fresh LB medium (1 L) containing 50 μg/ml ampicillin and it was cultured at 37°C. After OD600 reached to 0.8, the cultures were cooled at 16°C for 1 h, and then 0.1 mM IPTG was added. The culture was further incubated at 16°C for 20 h. The culture medium was centrifuged at 3,700 g and the pellet was stored at −20°C until use. The pellet was resuspended and sonicated in lysis buffer (50 mM Tris buffer (pH 8.0) containing 500 mM NaCl, 10 mM 2-mercaptoethanol, and 10% glycerol). The supernatant was purified by Ni Sepharose TM 6 Fast Flow (500 μl, Cytiva) After washing with the washing buffer (50 mM Tris buffer (pH 8.0) containing 500 mM NaCl and 20 mM imidazole), The bound protein was eluted with elution buffer (50 mM Tris buffer (pH 8.0) containing 500 mM NaCl and 200 mM imidazole). The eluate was concentrated using VIVASPIN Turbo 15 (Sartorius), and the concentration was adjusted to 5 mg/ml. The purified protein was aliquoted to the appropriate volume, immediately frozen in liquid nitrogen, and stored at −80°C until use.
as §3

[6] = tested on: Striga hermonthica seeds; set-up: method as in Uraguchi et al., 2018; details: ref Uraguchi et al., 2018; cited from earlier work
[7] = tested on: Arabidopsis wild type Col-0; experiment: Growth promoting assay and root phenotypic analysis; type: in vivo; details: 1 μM on agar plate
Description: Sterilized seeds of the Arabidopsis wild type Col-0 were put on the plate containing 1% (w/v) agar-solidified 0.5× Murashige and Skoog (MS) medium, 1% sucrose. Test compounds were dissolved in the medium at 1 μM by 10,000 times dilution from each acetone stock (final concentration of acetone was 0.01% (v/v)). To evaluate the growth promoting effect, these seedlings were cultured horizontally at 22°C for 20 days under LED light (105 μmol/m^2/s) with a 16 h light/8 h dark photoperiod. After the cultivation, flesh weight of shoot was measured. For root phenotypic analysis, these seedlings were cultured verticaly at 22°C for 11 days under LED light (105 μmol/m^2/s) with a 16 h light/8 h dark photoperiod. After the cultivation, root length was measured by using ImageJ software and number of lateral roots was counted by using a microscope.

[8] = Time course monitoring of degradation in hydroponic culture; type: physicochemical; details: 1 μM, within 1 week, pH 5.7, LC-MS/MS
Description: t-CASL1, c-CASL1, PPASL, and GR5 were separately added to 15 ml tubes containing hydroponic culture. The final concentration of the test compounds is 1 μM and acetone was adjusted to 0.01% (v/v). These solutions were incubated under the same conditions as branching assay. After incubation for 0, 5, 24 72, or 168 h, 495 μl of hydroponic culture containing test compounds was collected and 5 μl of NAA solution (10 μM) was added as an internal standard. The solution was extracted with ethyl acetate. The ethyl acetate phase was dried up under the nitrogen gas and dissolved in acetonitrile. These samples were subjected to LC–MS/MS analysis equipped with reverse-phase column (CORTECS UPLC Phenyl 1.6 μm, ϕ2.1 × 75 mm; Waters). Each peak area of test chemicals and internal standard was calculated, and the remaining percentage of teste chemicals was calculated. At the same time, the degradation products of test compounds (CA or PPA) were also analyzed. Detailed information about the analytical condition was described in Supplementary Table 1.

[9] = 1 h incubation, read-out: IC50 in YLG assay
[10] = read-out: IC50 in YLG assay, 1 h incubation

SMILES | IC50 [1, 9] [nM] | also measured
CC1=CC(OC(=O)CCc2ccccc2)OC1=O (stereo not shown) [PPASL] | 1460 | IC50 [2]: 2240 nM; hydrolysis by HTL7 [3]: can hydrolyze; germination-inducing activity compared with c-CASL1 or t-CASL1 [4]: much weaker activity; hydrolysis by AtD14 [5]: can hydrolyze
CCCCOc1ccc(S(=O)(=O)N2CCN(C(=O)OC3C=C(C)C(=O)O3)CC2)cc1 (stereo not shown) [SPL7, sphynolactone-7] | – | concentration inducing S. hermonthica germination [6]: fM concentrations
CC1=CC(OC(=O)/C=C/c2ccc(Cl)cc2)OC1=O (stereo not shown) [t-CASL9] | 830 | –
COc1ccc(/C=C\C(=O)OC2C=C(C)C(=O)O2)cc1 (stereo not shown) [c-CASL4] | 660 | –
CCOc1ccc(/C=C/C(=O)OC2C=C(C)C(=O)O2)cc1 (stereo not shown) [t-CASL5] | – | IC50 [1, 10]: 3970 nM
COc1ccc(/C=C/C(=O)OC2C=C(C)C(=O)O2)cc1 (stereo not shown) [t-CASL4] | 2210 | –
CC1=CC(OC(=O)/C=C\c2ccc(F)cc2)OC1=O (stereo not shown) [c-CASL7] | 1140 | –
CC1=CC(OC(=O)/C=C/c2ccc([N+](=O)[O-])cc2)OC1=O (stereo not shown) [t-CASL6] | 710 | –
CC1=CC(OC(=O)/C=C\c2ccc(C)cc2)OC1=O (stereo not shown) [c-CASL2] | 680 | –
CC1=C[C@H](O/C=C2/C(=O)O[C@@H]3c4ccccc4C[C@H]23)OC1=O (relative stereo) [GR24, reference compound] | 170 | IC50 ([2]; ShHTL6, YLG hydrolysis, 1 h incubation, read-out: IC50 in YLG assay): 2350 nM
CC1=CC(OC(=O)/C=C\c2ccc([N+](=O)[O-])cc2)OC1=O (stereo not shown) [c-CASL6] | 250 | –
CC1=CC(OC(=O)/C=C/c2ccc(C)cc2)OC1=O (stereo not shown) [t-CASL2] | 1410 | –
CC1=CC(OC(=O)/C=C/c2ccc(F)cc2)OC1=O (stereo not shown) [t-CASL7] | 1550 | –
CC1=CC(OC(=O)/C=C2\CCc3ccccc32)OC1=O (stereo not shown) [t-indCASL] | 3070 | germination-inducing activity compared with the corresponding non-fixed (unfixed) analog [4]: much stronger activity
CC1=CC(OC(=O)/C=C/c2ccc(O)cc2)OC1=O (stereo not shown) [t-CASL3] | > 10000 | –
O=C(O)/C=C\c1ccccc1 [cis-CA, cis-cinnamic acid, reference compound] | – | lateral root density ([7]; 11 days): increased; primary root length ([7]; 11 days): inhibited; shoot fresh weight ([7]; 20 days): increase
CC1=CC(OC(=O)/C=C\c2ccc(Br)cc2)OC1=O (stereo not shown) [c-CASL8] | 360 | –
CC1=CC(OC(=O)/C=C2\CCCc3ccccc32)OC1=O (stereo not shown) [t-tetCASL] | 3850 | germination-inducing activity compared with the corresponding non-fixed (unfixed) analog [4]: much stronger activity
CC1=CC(OC(=O)/C=C2/CCCc3ccccc32)OC1=O (stereo not shown) [c-tetCASL] | 4610 | –
CC1=CC(OC(=O)/C=C2/CCc3ccccc32)OC1=O (stereo not shown) [c-indCASL] | 2010 | –
CC1=CC(OC(=O)/C=C\c2ccc(C(F)(F)F)cc2)OC1=O (stereo not shown) [c-CASL10] | 220 | –
CC1=CC(OC(=O)/C=C/c2ccccc2)OC1=O (stereo not shown) [t-CASL1] | 2050 | IC50 [2]: 1850 nM; loss (non-enzymatic degradation) in hydroponic culture medium [8]: ~40%; hydrolysis by HTL7 [3]: can hydrolyze; hydrolysis by AtD14 [5]: can hydrolyze
CC1=CC(OC(=O)/C=C/c2ccc(C(F)(F)F)cc2)OC1=O (stereo not shown) [t-CASL10] | 340 | –
CC1=CC(OC(=O)/C=C/c2ccc(Br)cc2)OC1=O (stereo not shown) [t-CASL8] | 700 | –
CCOc1ccc(/C=C\C(=O)OC2C=C(C)C(=O)O2)cc1 (stereo not shown) [c-CASL5] | – | IC50 [1, 10]: 310 nM
CC1=CC(OC(=O)/C=C\c2ccc(O)cc2)OC1=O (stereo not shown) [c-CASL3] | 3430 | –
CC1=CC(OC(=O)/C=C\c2ccc(Cl)cc2)OC1=O (stereo not shown) [c-CASL9] | 340 | –
